Structures are written as SMILES.

In the experiment the test system is P388. Kind of experiment: Cytotoxicity against mouse P388 cells after 72 hrs by MTT assay. It is filed as functional. The note with it: P388, 72 h, read-out: ED50 (the source's name).
For `C=C1[C@]2(O)C(=O)C[C@@]3(C)[C@H](c4ccoc4)OC(=O)C[C@]13O[C@H]1C[C@@H](OC(C)=O)C(C)(C)[C@H](CC(=O)OC)[C@]12C` [CINERACIPADESIN C], the EC50 was above 5 µg/mL. Regarding `C=C1[C@@H]2CC[C@@]3(C)[C@H](c4ccoc4)OC(=O)C[C@]13O[C@H]1[C@H](OC(C)=O)[C@H](OC(C)=O)C(C)(C)[C@H](CC(=O)OC)[C@@]21C`, the EC50 is above 5 µg/mL.

`C=C1[C@@]23CC(=O)O[C@@H](c4ccoc4)[C@]2(C)C[C@@H](O)[C@]1(O)[C@@]1(C)[C@@H](O3)[C@@H](OC(C)=O)[C@@H](OC(C)=O)C(C)(C)[C@@H]1CC(=O)OC` [CINERACIPADESIN B]: the EC50 was above 5 µg/mL. Consider `C=C1[C@@H]2[C@H](OC(C)=O)C[C@@]3(C)[C@H](c4ccoc4)OC(=O)C[C@]13O[C@H]1[C@@H](OC(C)=O)[C@@H](OC(C)=O)C(C)(C)[C@H](CC(=O)OC)[C@@]21C` [CINERACIPADESIN E], for which the EC50 is above 5 µg/mL. The same measure for `CC[C@@H](C)C(=O)O[C@@H]1[C@H]2C(=O)[C@@](C)([C@@H](CC(=O)OC)C1(C)C)[C@@]13O[C@@H]1C[C@@]1(C)[C@H](c4ccoc4)OC(=O)C[C@@H]1[C@]31O[C@H]21` [CINERACIPADESIN A]: above 5 µg/mL; for `C=C1[C@@H]2[C@H](OC(C)=O)C[C@@]3(C)[C@H](c4ccoc4)OC(=O)C[C@]13O[C@H]1C[C@@H](OC(C)=O)C(C)(C)[C@H](CC(=O)OC)[C@]12C` [CINERACIPADESIN D]: above 5 µg/mL. The same measure for `C=C1[C@]2(OC(C)=O)C[C@@]3(C)[C@H](c4ccoc4)OC(=O)C[C@]13O[C@H]1[C@@H](OC(C)=O)[C@@H](OC(C)=O)C(C)(C)[C@H](CC(=O)OC)[C@@]1(C)C2=O` [CINERACIPADESIN F]: above 5 µg/mL.

Source of the values: ChEMBL document CHEMBL1151852, “Tetranortriterpenoids from the Leaves of Cipadessa cinerascens” (2009).
